# Results taken from publication PMC9370031, “Free Linoleic Acid and Oleic Acid Reduce Fat Digestion and Absorption In Vivo as Potent Pancreatic Lipase Inhibitors Derived from Sesame Meal” (Molecules, 2022).
# Where two headings read alike, the source gives them in different places.
# Target: T1, porcine pancreatic lipase (Sus scrofa, UniProt P00591)
# T1 construct: gene PNLIP
# T1 sequence (P00591 1-450): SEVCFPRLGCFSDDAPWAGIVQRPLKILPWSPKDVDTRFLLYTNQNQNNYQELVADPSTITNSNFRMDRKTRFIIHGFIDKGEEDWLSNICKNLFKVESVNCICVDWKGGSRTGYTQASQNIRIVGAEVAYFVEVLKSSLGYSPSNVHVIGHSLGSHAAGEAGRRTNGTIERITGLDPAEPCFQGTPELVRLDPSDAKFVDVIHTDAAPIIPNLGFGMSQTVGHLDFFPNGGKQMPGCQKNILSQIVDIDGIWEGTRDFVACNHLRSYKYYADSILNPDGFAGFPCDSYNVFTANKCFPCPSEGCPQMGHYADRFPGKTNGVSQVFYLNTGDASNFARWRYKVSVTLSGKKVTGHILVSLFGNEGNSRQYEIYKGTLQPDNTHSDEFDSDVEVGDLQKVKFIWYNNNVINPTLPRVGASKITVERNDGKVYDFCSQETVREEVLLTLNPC
# Experiment: colorimetric lipase activity assay (Lipase Kit S, BLAB/DTNB, […] nm) with porcine pancreas lipase Type II
# Type: biochemical
smiles,measurement,setting,value
CCCCC/C=C\C/C=C\CCCCCCCC(=O)O [linoleic acid],IC50,,82.4 µM
CCCCCCCC/C=C\CCCCCCCC(=O)O [oleic acid],IC50,read-out: IC50,41.4 µM
